The values that follow come from PubChem BioAssay AID720588 (Broad Institute, 2013).

This assay concerns HEK293T viability, CellTiter-Glo ATP luminescence, 72 h. Briefly: HEK293T cell cytotoxicity, dose response, cytotoxicity control, CellTiter-Glo luminescence, cherry-pick, set 3 (AID 720588).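 Also: potency for luminescence loss meaning cytotoxic compounds.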 In general terms: Cellular ATP, detected with luciferase, serves as a proxy for viable cell number.
For the compound `C[C@@H]1CN([C@H](C)CO)C(=O)c2cc(NC(=O)c3ccccc3)ccc2O[C@@H](C)CCCCO[C@H]1CN(C)C(=O)Nc1cccc2ccccc12`, the AC35 was 2.06 µM.

As for `COC(=O)c1ccccc1-c1c2ccc(=N)cc-2oc2cc(N)ccc12`, the AC35 is 15.3 µM.

Turning to `C=C1C(=O)O[C@@H]2[C@H]1[C@@H](OC(=O)/C(C)=C/C)C/C(C)=C\C(=O)/C=C(\C)[C@@H]2O`, the AC35 was 7.47 µM.

On to `C[C@H](CO)N1C[C@H](C)[C@@H](CN(C)Cc2ccc(C(F)(F)F)cc2)OCCCC[C@H](C)Oc2ccc(NS(=O)(=O)c3ccc(F)cc3)cc2C1=O`, for which the AC35 is 15.1 µM.

Regarding `NC(Cc1ccc(C(F)(F)F)cc1)c1csc(NC(=O)Nc2ccccc2Cc2ccccc2)n1` (stereo unspecified), the AC35 is 12.4 µM.

As to `OCC1OC(n2ccc3c2ncn2ncnc32)C(O)C1O` (stereo unspecified), the AC35 was 14.6 µM.

As to `CN1C2CCC1/C(=C/c1ccccn1)C(=O)/C2=C\c1ccccn1`, the AC35 is 1.1 µM.

Take `O=C(Sc1cccc2cccnc12)c1ccccc1Br`: the AC35 was 7.7 µM.

Turning to `C=C1C(=O)OC2C1CCC(C)C1(O)C=CC(=O)C21C` (stereo unspecified), the AC35 was 9.94 µM.

On to `C/C(=N\NC(=O)c1n[nH]c2c1CCC2)c1cccs1`, for which the AC35 was 10.8 µM.

Turning to `C=CC[n+]1c(-c2ccc(C)cc2)csc1Nc1ccc(NC(C)=O)cc1`, the AC35 was 12.5 µM.

Regarding `Nc1nc(N)c(-c2cccc(C(F)(F)F)c2)c(Cc2cccc(C(F)(F)F)c2)n1`, the AC35 is 8.95 µM.

For the compound `C(=Cc1cnc2ccccc2n1)c1ccc2c(c1)OCO2`, the AC35 is 5.29 µM.

As to `CN=c1scc(-c2cccs2)n1/N=C/c1ccccc1O`, the AC35 was 10.5 µM.

Consider `C[C@@H]1CN([C@@H](C)CO)S(=O)(=O)c2ccc(C#Cc3ccncc3)cc2O[C@H]1CN(C)S(=O)(=O)c1ccccc1`, for which the AC35 is 24.5 µM.

For the compound `Cc1ccc(S(=O)(=O)Nc2ccc3c(c2)C(=O)N([C@H](C)CO)C[C@H](C)[C@@H](CN(C)Cc2ccc(C(F)(F)F)cc2)OCCCC[C@H](C)O3)cc1`, the AC35 was 8.51 µM.

Consider `O=C1NC(=O)N(c2ccccc2)C(=O)/C1=C\C=C\c1ccccc1`, for which the AC35 is 19.1 µM.

Regarding `NC1=CC(=O)C(=O)c2cccnc21`, the AC35 is 20.7 µM.

In the case of `Cc1nc(N)nc(N)c1-c1ccc(Cl)c(Cl)c1`, the AC35 is 1.72 µM.

As to `COc1ccccc1NC(=O)N1CCCCN2[C@H](CO)[C@H](c3ccc(-c4cccc(C)c4)cc3)[C@H]2C1`, the AC35 is 10.4 µM.

As for `CCN1/C(=C/C(C)=C/c2sc3ccccc3[n+]2CC)Sc2ccccc21`, the AC35 was 0.301 µM.

`Cc1ccc(/C=N/Nc2ccc3ccccc3n2)o1`: the AC35 was 15.5 µM.

`N#CC(C#N)=C1C=CC=CN1/C(=C\c1ccco1)C(=O)c1ccc(Cl)cc1`: the AC35 was 3.47 µM.

Consider `CN(C)c1ccc(C=c2c3ccccc3n3c2c2c([n+]3C)CCCC2)cc1`, for which the AC35 is 2.08 µM.

As to `O=C(C[C@H]1C[C@H]2c3cc(NS(=O)(=O)c4ccc(F)cc4)ccc3O[C@H]2[C@H](CO)O1)NCc1ccc(Oc2ccccc2)cc1`, the AC35 was 16 µM.

For the compound `O=C1NC(=O)N(Cc2ccco2)C(=O)/C1=C/C=C/c1ccco1`, the AC35 was 13.7 µM.

On to `Nc1nc2cc3c(cc2cc1C(=O)NCCc1c[nH]c2ccccc12)OCO3`, for which the AC35 is 5.04 µM.

For the compound `CN=c1scc(-c2ccccc2F)n1/N=C/c1ccc[nH]1`, the AC35 is 10.8 µM.

As for `COc1ccccc1-c1ccc(OCCCN2CCC(C(O)(c3ccccc3)c3ccccc3)CC2)cc1`, the AC35 is 10.3 µM.

Turning to `Nc1nc(N)c2cc(Sc3ccc4ccccc4c3)ccc2n1`, the AC35 is 4.44 µM.

For `Cc1ccc(S(=O)(=O)Nc2ccc3c(c2)C(=O)N([C@@H](C)CO)C[C@@H](C)[C@@H](CN(C)Cc2ccc(C(=O)Nc4ccccc4N)cc2)O3)cc1`, the AC35 is 7.11 µM.

Regarding `CCCCCCCN(c1ccccc1)[C@@H]1C[C@H]2CCCC(=O)N3CC[C@@H](C1)[C@@H]23`, the AC35 is 13.3 µM.

Regarding `C[C@@H]1CN([C@H](C)CO)S(=O)(=O)c2ccc(C#CC(C)(C)O)cc2O[C@H]1CN(C)Cc1ccc(-c2ccccc2)cc1`, the AC35 is 7.28 µM.

On to `O=C(Nc1ccc2c(c1)OCO2)N1C[C@@H]2N[C@H](C1)C2c1ccc(C=Cc2ccccc2)cc1` (stereo partly specified), for which the AC35 was 9.59 µM.

`COc1ccc(-c2cn(-c3ccc(OC)cc3)c3[n+]2-c2ccccc2CC3)cc1`: the AC35 was 7.06 µM.

For the compound `CN1c2ccc(-c3ccc(C#N)cc3)cc2[C@H]2[C@H](CCN2S(=O)(=O)c2cccc(F)c2)[C@H]1CO`, the AC35 was 13.4 µM.

For the compound `COc1ccccc1CNC(=O)C[C@@H]1CC[C@H]2[C@@H](COC[C@H](O)CN2C(=O)Nc2ccc(C(F)(F)F)cc2)O1`, the AC35 was 13.5 µM.

Take `O=C(NC[C@@H]1N[C@@H](CO)[C@H]1c1ccc(C2=CCCCC2)cc1)c1cccc(F)c1`: the AC35 is 10.1 µM.

On to `C(=N\Nc1ccc2ccccc2n1)/c1ccc2c(c1)OCCO2`, for which the AC35 was 10.4 µM.

Take `COc1cccc(O)c1CN1CCC(C(=O)Nc2ccc(-c3cccc(C)c3)cc2)CC1`: the AC35 was 11.8 µM.

Consider `CCc1nc(N)nc(N)c1-c1ccc(Cl)c(N=[N+]=[N-])c1`, for which the AC35 was 8.98 µM.

As for `Cc1cc(-c2nc3cc(F)ccc3s2)ccc1N`, the AC35 was 16.9 µM.

As for `CC(C)CC#Cc1ccc([C@@H]2[C@@H](CO)N3CCCCN(S(=O)(=O)c4ccc(F)cc4)C[C@H]23)cc1`, the AC35 is 16.1 µM.

Take `OC[C@H]1[C@@H](c2ccc(C#CC3CCCC3)cc2)[C@@H]2CN(CCC(F)(F)F)CCCCN12`: the AC35 was 10.4 µM.

Regarding `CN(C)c1ccc(N=Nc2nc3ccccc3n2C)cc1`, the AC35 was 12.5 µM.

As for `COc1ccc(NC(=O)N2CCCCN3[C@@H](CO)[C@H](c4ccc(C5=CCCCC5)cc4)[C@@H]3C2)cc1`, the AC35 is 10 µM.
